Assay results taken from ChEMBL document CHEMBL6114980, “Single or double lipid-modified ultra-short antimicrobial peptides for treating infections caused by resistant bacteria” (Eur J Med Chem, 2025).
≈ marks a conversion by molar mass, not a printed value. Calls of active or inactive are those of the source. The calls are words filed in the database; no cut-off is given here. Peptide text beside a SMILES is read from it. * marks the point of attachment. Lauroyl = CCCCCCCCCCCC(=O)*; Octanoyl = CCCCCCCC(=O)*

How the values were obtained:
[1] = test system: Staphylococcus aureus; test: Antibacterial activity against methicillin-resistant Staphylococcus aureus 75 assessed as reduction in bacterial growth incubated for 18 to 24 hrs by broth microdilution method; assay type: functional; settings: time 18-24 hrs
[2] = test system: Klebsiella pneumoniae; test: Antibacterial activity against Klebsiella pneumoniae ATCC 700603 infected in male BALB/c mouse lung infection model assessed as reduction in bacterial load at 5 mg/kg, ip measured after 6 to 36 hrs (reference value: 1.77 10^6CFU/mg); assay type: functional; settings: time 6-36 hrs
[3] = test system: Escherichia coli; test: Antibacterial activity against Escherichia coli ATCC 25922 assessed as reduction in bacterial growth incubated for 18 to 24 hrs by broth microdilution method; assay type: functional; settings: time 18-24 hrs
[4] = test system: Escherichia coli; test: Antibacterial activity against Escherichia coli assessed as reduction in survival bacterial growth in presence of ZnCl2 measured after 18 to 24 hrs (reference value: 8 microM); assay type: functional; settings: time 18-24 hrs
[5] = test system: Staphylococcus aureus; test: Synergistic antibacterial activity against Staphylococcus aureus 25923 measured after 18 hrs in presence of polymyxin B by absorbance based analysis; assay type: functional, organism-based
[6] = test system: Escherichia coli; test: Antibacterial activity against Escherichia coli 850 assessed as reduction in bacterial growth incubated for 18 to 24 hrs by broth microdilution method; assay type: functional; settings: time 18-24 hrs
[7] = test system: Staphylococcus aureus; test: Synergistic antibacterial activity against Staphylococcus aureus 113 measured after 18 hrs in presence of polymyxin B by absorbance based analysis; assay type: functional, organism-based
[8] = test system: Staphylococcus aureus; test: Induction of morphological changes in Staphylococcus aureus assessed as cell aggregation at 2 times MIC measured after 30 mins by SEM analysis; assay type: functional, organism-based
[9] = test system: Staphylococcus aureus; test: Induction of morphological changes in Staphylococcus aureus assessed as cell foaming at 2 times MIC measured after 30 mins by SEM analysis; assay type: functional, organism-based
[10] = test system: Klebsiella pneumoniae; test: Induction of morphological changes in Klebsiella pneumoniae assessed as cell adhesion at 2 times MIC measured after 30 mins by SEM analysis; assay type: functional, organism-based
[11] = test system: Klebsiella pneumoniae; test: Antibacterial activity against Klebsiella pneumoniae ATCC 700603 infected in male BALB/c mouse lung infection model assessed as reduction in number of inflammatory cells at 5 mg/kg, ip measured after 6 to 36 hrs; assay type: functional, organism-based; settings: time 6-36 hrs
[12] = test system: Escherichia coli; test: Antibacterial activity against Escherichia coli 780 assessed as reduction in bacterial growth incubated for 18 to 24 hrs by broth microdilution method; assay type: functional; settings: time 18-24 hrs
[13] = test system: Staphylococcus aureus; test: Antibacterial activity against Staphylococcus aureus assessed as reduction in survival bacterial growth by measuring fold change in presence of FeCl3 measured after 18 to 24 hrs; assay type: functional; settings: time 18-24 hrs
[14] = test system: Staphylococcus aureus; test: Synergistic antibacterial activity against methicillin-resistant Staphylococcus aureus measured after 18 hrs in presence of streptomycin by absorbance based analysis; assay type: functional, organism-based
[15] = test system: Escherichia coli; test: Antibacterial activity against Escherichia coli assessed as reduction in survival bacterial growth in presence of FeCl3 measured after 18 to 24 hrs (reference value: 8 microM); assay type: functional; settings: time 18-24 hrs
[16] = test system: Staphylococcus aureus; test: Antibacterial activity against Staphylococcus aureus 125 assessed as reduction in bacterial growth incubated for 18 to 24 hrs by broth microdilution method; assay type: functional; settings: time 18-24 hrs
[17] = test system: Cell membrane; test: Induction of inner membrane permeabilization in Escherichia coli at 2 times MIC measured for 135 mins by absorbance based analysis
[18] = test system: Escherichia coli; test: Antibacterial activity against Escherichia coli assessed as reduction in survival bacterial growth in presence of <=2 ug/ml chymotrypsin measured after1 hr by absorbance based analysis; assay type: functional, organism-based; settings: time 1.0 hrs
[19] = test system: Escherichia coli; test: Antibacterial activity against Escherichia coli assessed as reduction in survival bacterial growth in presence of KCl measured after 18 to 24 hrs (reference value: 8 microM); assay type: functional; settings: time 18-24 hrs
[20] = test system: Escherichia coli; test: Induction of cell membrane disruption in Escherichia coli assessed as PI uptake at 4 times MIC measured after 120 mins by PI staining based flow cytometry analysis (Rvb =<10 %); assay type: functional; settings: 2 h
[21] = test system: Staphylococcus aureus; test: Antibacterial activity against Staphylococcus aureus ATCC 25923 assessed as reduction in bacterial growth incubated for 18 to 24 hrs by broth microdilution method; assay type: functional; settings: time 18-24 hrs
[22] = test system: Escherichia coli; test: Induction of cell membrane disruption in Escherichia coli assessed as PI uptake at 2 times MIC measured after 120 mins by PI staining based flow cytometry analysis (Rvb =<10 %); assay type: functional; settings: 2 h
[23] = Potency index, ratio of polymyxin B to test compound for acute toxicity in BALB/c mouse assessed lethal dose administered as ip dose measured for 7 days; assay type: organism-based; settings: in vivo, 168 h, time 7 day
[24] = test system: Cell membrane; test: Induction of outer membrane permeabilization in Escherichia coli assessed as increase in fluorescence intensity measured for 10 mins by fluorescence based NPN uptake assay
[25] = test system: Escherichia coli; test: Bactericidal activity against Escherichia coli 25922 assessed as eradication of bacteria at 2 times MIC measured within 1 hr by time-kill assay; assay type: functional, organism-based
[26] = test system: Klebsiella pneumoniae; test: Antibacterial activity against Klebsiella pneumoniae ATCC 700603 assessed as reduction in bacterial growth incubated for 18 to 24 hrs by broth microdilution method; assay type: functional; settings: time 18-24 hrs
[27] = test system: Staphylococcus aureus; test: Induction of morphological changes in Staphylococcus aureus assessed as cell adhesion at 2 times MIC measured after 120 mins by SEM analysis; assay type: functional, organism-based
[28] = test system: Staphylococcus aureus; test: Synergistic antibacterial activity against Staphylococcus aureus 25923 assessed as fractional inhibitory in presence of streptomycin by checker board assay; assay type: functional
[29] = test system: Staphylococcus epidermidis; test: Antibacterial activity against Staphylococcus epidermidis ATCC 12228 assessed as reduction in bacterial growth incubated for 18 to 24 hrs by broth microdilution method; assay type: functional; settings: time 18-24 hrs
[30] = Acute toxicity in male BALB/c mouse assessed mouse survival at 100 to 130 mg/kg, ip measured within 3 hrs; assay type: organism-based; settings: in vivo, dose 100-130 mg/kg
[31] = test system: Pseudomonas aeruginosa; test: Antibacterial activity against Pseudomonas aeruginosa 6434N assessed as reduction in bacterial growth incubated for 18 to 24 hrs by broth microdilution method; assay type: functional; settings: time 18-24 hrs
[32] = test system: Cell membrane; test: Induction of cytoplasmic membrane depolarization in Escherichia coli assessed as increase in fluorescence intensity at 4 times MIC measured for 10 mins by DiSC3-5 dye based fluorescence assay
[33] = test system: Cell membrane; test: Induction of outer membrane permeabilization in Escherichia coli assessed as increase in fluorescence intensity at 2 to 4 times MIC measured for 10 mins by fluorescence based NPN uptake assay
[34] = Stability in mouse serum assessed as half life measured after 1 hr by HPLC analysis; assay type: ADME, cell-free
[35] = test system: Staphylococcus aureus; test: Bactericidal activity against Staphylococcus aureus assessed as bacterial mortality rate at 2 times MIC preincubated with LTA for 1 hr followed by bacteria addition for 24 hrs by spectrophotometric analysis relative to control; assay type: functional
[36] = test system: Klebsiella pneumoniae; test: Induction of morphological changes in Klebsiella pneumoniae assessed as cell contraction at 2 times MIC measured after 30 mins by SEM analysis; assay type: functional, organism-based
[37] = test system: Staphylococcus aureus; test: Additive antibacterial activity against methicillin-resistant Staphylococcus aureus assessed as fractional inhibitory in presence of streptomycin by checker board assay; assay type: functional
[38] = test system: Staphylococcus aureus; test: Antibacterial activity against Staphylococcus aureus assessed as reduction in survival bacterial growth in presence of NaCl measured after 18 to 24 hrs (reference value: 8 microM); assay type: functional; settings: time 18-24 hrs
[39] = Acute toxicity in male BALB/c mouse assessed inflammatory cell infiltration in lung at 100 to 130 mg/kg, ip measured after 7 days by H and E staining based analysis; assay type: organism-based; settings: in vivo, 168 h, dose 100-130 mg/kg, time 7 day
[40] = Acute toxicity in male BALB/c mouse assessed inflammatory cell infiltration in kidney at 100 to 130 mg/kg, ip measured after 7 days by H and E staining based analysis; assay type: organism-based; settings: in vivo, 168 h, dose 100-130 mg/kg, time 7 day

For `CCCCCCCCCCCC(=O)N[C@@H](CCCCN)C(=O)N[C@@H](CCCCN)C(=O)N[C@@H](Cc1c[nH]c2ccccc12)C(=O)N[C@@H](Cc1c[nH]c2ccccc12)C(N)=O` (Lauroyl-KKWW-NH2), the MIC [1] was 4 µM (≈ 3.31 µg/mL), the Activity [2] was 2.4 10^4CFU/mg and the MIC [3] was 8 µM (≈ 6.62 µg/mL). For the same molecule, the MIC [4] was 8 µM, the Activity [5] was “Active” and the MIC [6] was 8 µM (≈ 6.62 µg/mL). The Activity [7] was “Active”, the Activity [8] was “Active” and the Activity [9] was “Active”. For the same molecule, the Activity [10] was “Active”, the Activity [11] was “Active” and the MIC [12] was 8 µM (≈ 6.62 µg/mL). For the same molecule, the “fold change (FC)” value [13] was 2, the Activity [14] was “Active” and the MIC [15] was 8 µM. The MIC [16] was 4 µM (≈ 3.31 µg/mL), the Activity [17] was “Active; Compound Showed Higher Permeability Than Positive Control 0.1% Tritonx-100” and the Activity [18] was “Active”. It also gave an MIC [19] of 4 µM, an Activity [20] of 100% and an MIC [21] of 4 µM (≈ 3.31 µg/mL). For the same molecule, the Activity [22] was over 50%, the Ratio [23] was 4.84 and the Activity [24] was “Dose-dependent-effect”. The Activity [25] was “Active”, the MIC [26] was 16 µM (≈ 13.2 µg/mL) and the Activity [27] was “Active”. For the same molecule, the “fractional inhibitory concentration index (FICI)” value [28] was 0.187, the MIC [29] was 4 µM (≈ 3.31 µg/mL) and the Activity [30] was “Toxic”. The MIC [31] was 8 µM (≈ 6.62 µg/mL), the Activity [32] was “Active; Compound Showed Pronounced Effect Than Quality Control Polymyxin B” and the Activity [33] was “Active”. For the same molecule, the half-life [34] was 4.25 h, the Activity [35] was over 50% and the Activity [36] was “Active”.

With `CCCCCCCC(=O)NCCCC[C@H](NC(=O)CCCCCCC)C(=O)N[C@@H](CCCCN)C(=O)N[C@@H](CCCCN)C(=O)N[C@@H](Cc1c[nH]c2ccccc12)C(=O)N[C@@H](Cc1c[nH]c2ccccc12)C(N)=O` (Octanoyl-K(Octanoyl)KKWW-NH2) the MIC [1] was 8 µM (≈ 8.21 µg/mL), the Activity [2] was 1.66 10^4CFU/mg and the MIC [3] was 8 µM (≈ 8.21 µg/mL). The MIC [4] was 4 µM, the Activity [5] was “Active” and the MIC [6] was 8 µM (≈ 8.21 µg/mL). For the same molecule, the Activity [7] was “Active”, the Activity [8] was “Active” and the “fractional inhibitory concentration index (FICI)” value [37] was 0.562. The Activity [9] was “Active”, the Activity [10] was “Active” and the MIC [38] was 8 µM. For the same molecule, the Activity [11] was “Active”, the MIC [12] was 8 µM (≈ 8.21 µg/mL) and the “fold change (FC)” value [13] was 2. For the same molecule, the Activity [14] was “Active”, the Activity [39] was “Non-toxic” and the MIC [15] was 8 µM. The MIC [16] was 8 µM (≈ 8.21 µg/mL), the Activity [17] was “Active” and the Activity [18] was “Active”. It also gave an MIC [19] of 8 µM, an Activity [20] of 100% and an MIC [21] of 8 µM (≈ 8.21 µg/mL). The Activity [22] was over 50%, the Ratio [23] was 4.78 and the Activity [40] was “Non-toxic”. The Activity [24] was “Dose-dependent-effect”, the Activity [25] was “Active” and the MIC [26] was 16 µM (≈ 16.4 µg/mL). The “fractional inhibitory concentration index (FICI)” value [28] was 0.312, the MIC [29] was 8 µM (≈ 8.21 µg/mL) and the Activity [30] was “Toxic”. For the same molecule, the MIC [31] was 16 µM (≈ 16.4 µg/mL), the Activity [32] was “Active; Compound Showed Pronounced Effect Than Quality Control Polymyxin B” and the Activity [33] was “Active”. For the same molecule, the half-life [34] was 6.3 h, the Activity [35] was over 50% and the Activity [36] was “Active”.
